Results published in patent publication US20220386606A1, “SPECIFICALLY SUBSTITUTED 3-PHENYL-5-SPIROCYCLOPENTYL-3-PYRROLIN-2-ONES AND THEIR USE AS HERBICIDES” (Bayer Aktiengesellschaft, priority 2019, published 2022).

Legend:
[1] = test system: POLCO; test: Post-emergence herbicidal action against POLCO; type: in vivo, Polygonum convolvulus; settings: 80 g/ha, visual assessment about 3 weeks after treatment vs untreated controls
Experimental: (§1) Seeds of monocotyledonous and dicotyledonous weed and crop plants are laid out in sandy loam soil in wood-fiber pots, covered with soil and cultivated in a greenhouse under good growth conditions. 2 to 3 weeks after sowing, the test plants are treated at the one-leaf stage. The compounds of the invention, formulated in the form of wettable powders (WP) or as emulsion concentrates (EC), are then sprayed onto the green parts of the plants as aqueous suspension or emulsion at a water application rate equating to 600 to 800 l/ha with addition of 0.2% wetting agent. After the test plants have been left to stand in the greenhouse under optimal growth conditions for about 3 weeks, the action of the preparations is assessed visually in comparison to untreated controls (herbicidal action in percent (%): 100% activity=the plants have died, 0% activity=like control plants).

[2] = test system: AVEFA; test: Pre-emergence herbicidal action against AVEFA; type: in vivo, Avena fatua; settings: 320 g/ha, scored visually after 3 weeks vs untreated controls
Procedure, shortened: (§2)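 Pots of sandy loam with covered seeds receive a surface application of compound (WP or EC; aqueous, 600 to 800 L/ha, 0.2% wetting agent) before emergence. Under good greenhouse growth conditions, percent damage is judged by eye at 3 weeks against untreated controls.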

[3] = test system: ALOMY; test: Pre-emergence herbicidal action against ALOMY; type: in vivo, Alopecurus myosuroides; settings: 320 g/ha, scored visually after 3 weeks vs untreated controls
Procedure, shortened: as §2

[4] = test system: VIOTR; test: Pre-emergence herbicidal action against VIOTR; type: in vivo, Viola tricolor; settings: 320 g/ha
Procedure, shortened: as §2

[5] = test system: POLCO; test: Pre-emergence herbicidal action against POLCO; type: in vivo, Polygonum convolvulus; settings: 320 g/ha
Procedure, shortened: as §2

[6] = test system: LOLRI; test: Pre-emergence herbicidal action against LOLRI (Table 8, titled post-emergence at 320 g/ha); type: in vivo, Lolium rigidum; settings: table stands in the pre-emergence section
Procedure, shortened: as §2

[7] = test system: SETVI; test: Post-emergence herbicidal action against SETVI; type: in vivo, Setaria viridis; settings: 80 g/ha, visual assessment about 3 weeks after treatment vs untreated controls
Procedure, shortened: (§3)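 Greenhouse post-emergence test; one-leaf stage (2–3 wk post-sowing), sandy loam. Spray: WP/EC in water, 600–800 l/ha, 0.2% wetting agent, onto green parts. Visual rating ~3 wk later, % vs untreated (100% = dead, 0% = like control).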

[8] = test system: ALOMY; test: Post-emergence herbicidal action against ALOMY; type: in vivo, Alopecurus myosuroides; settings: 80 g/ha, visual assessment after about 3 weeks
Procedure, shortened: as §3

[9] = test system: ECHCG; test: Post-emergence herbicidal action against ECHCG; type: in vivo, Echinochloa crus-galli; settings: 80 g/ha, visual assessment about 3 weeks after treatment vs untreated controls
Procedure, shortened: as §3

[10] = test system: DIGSA; test: Pre-emergence herbicidal action against DIGSA; type: in vivo, Digitaria sanguinalis; settings: 320 g/ha, scored visually after 3 weeks vs untreated controls
Procedure, shortened: as §2

[11] = test system: LOLRI; test: Post-emergence herbicidal action against LOLRI; type: in vivo, Lolium rigidum; settings: 80 g/ha, visual assessment about 3 weeks after treatment vs untreated controls
Procedure, shortened: as §3

[12] = test system: VERPE; test: Pre-emergence herbicidal action against VERPE; type: in vivo, Veronica persica; settings: 320 g/ha
Procedure, shortened: as §2

[13] = test system: DIGSA; test: Post-emergence herbicidal action against DIGSA; type: in vivo, Digitaria sanguinalis; settings: 80 g/ha, visual assessment about 3 weeks after treatment vs untreated controls
Procedure, shortened: as §3

[14] = test system: SETVI; test: Pre-emergence herbicidal action against SETVI; type: in vivo, Setaria viridis; settings: 320 g/ha, scored visually after 3 weeks vs untreated controls
Procedure, shortened: as §2

[15] = test system: ECHCG; test: Pre-emergence herbicidal action against ECHCG; type: in vivo, Echinochloa crus-galli; settings: 320 g/ha, scored visually after 3 weeks vs untreated controls
Procedure, shortened: as §2

[16] = test system: PHBPU; test: Post-emergence herbicidal action against PHBPU; type: in vivo; settings: assessed visually after about 3 weeks, 100% = plants have died, 0% = like control plants
Experimental: as §1

[17] = test system: AVEFA; test: Post-emergence herbicidal action against AVEFA; type: in vivo, Avena fatua; settings: 80 g/ha, visual assessment after about 3 weeks
Procedure, shortened: as §3

[18] = test system: AMARE; test: Pre-emergence herbicidal action against AMARE; type: in vivo, Amaranthus retroflexus; settings: 320 g/ha
Procedure, shortened: as §2

[19] = test system: MATIN; test: Pre-emergence herbicidal action against MATIN; type: in vivo; settings: 320 g/ha
Procedure, shortened: as §2

[20] = test system: VIOTR; test: Post-emergence herbicidal action against VIOTR; type: in vivo, Viola tricolor; settings: 80 g/ha, visual assessment about 3 weeks after treatment vs untreated controls
Procedure, shortened: as §3

Structure (SMILES)	Post-emergence action against POLCO in % [1] [%]	Pre-emergence action against AVEFA in % [2] [%]	Pre-emergence action against ALOMY in % [3] [%]	Pre-emergence action against VIOTR in % [4] [%]	Pre-emergence action against POLCO in % [5] [%]	Pre-emergence herbicidal action against LOLRI in % [6] [%]	Post-emergence action against SETVI in % [7] [%]	Post-emergence action against ALOMY in % [8] [%]	Post-emergence action against ECHCG in % [9] [%]	Pre-emergence action against DIGSA in % [10] [%]	Post-emergence action against LOLRI in % [11] [%]	Pre-emergence action against VERPE in % [12] [%]	Post-emergence action against DIGSA in % [13] [%]	Pre-emergence action against SETVI in % [14] [%]	Pre-emergence action against ECHCG in % [15] [%]	Post-emergence action at 80 g/ha against PHBPU in % [16] [%]	Post-emergence action against AVEFA in % [17] [%]	Pre-emergence action against AMARE in % [18] [%]	Pre-emergence action against MATIN in % [19] [%]	Post-emergence action against VIOTR in % [20] [%]
CC#Cc1cc(Br)c(C2=C(O)C3(CCC(COC)C3)NC2=O)c(OC)c1 (stereo not drawn) [Example I-10]	80	100	100	100	80	100	100	100	100	100	100	100	100	100	100	–	–	–	–	–
CC#Cc1cc(F)c(C2=C(O)C3(CCC(COC)C3)NC2=O)c(OC)c1 (stereo not drawn) [Example I-41]	–	80	–	–	–	100	100	100	100	100	90	–	100	100	–	80	90	–	–	–
CC#Cc1cc(C)c(C2=C(O)C3(CCC(COCCC)C3)NC2=O)c(OC)c1 (stereo not drawn) [Example I-58]	–	80	100	90	–	100	100	100	100	100	100	–	90	100	100	80	–	100	100	80
